Results on 35 compounds are retold here after patent US7728158B2, “PPAR activity regulators” (Ajinomoto Co., Inc., priority 2006, dated 2010).

One assay has as its target T1, PPAR-α (Homo sapiens, UniProt Q07869).
T1 construct: expressed in transfected cells; host or cells: CV-1 (African green monkey kidney)
T1 sequence (Q07869 167-468): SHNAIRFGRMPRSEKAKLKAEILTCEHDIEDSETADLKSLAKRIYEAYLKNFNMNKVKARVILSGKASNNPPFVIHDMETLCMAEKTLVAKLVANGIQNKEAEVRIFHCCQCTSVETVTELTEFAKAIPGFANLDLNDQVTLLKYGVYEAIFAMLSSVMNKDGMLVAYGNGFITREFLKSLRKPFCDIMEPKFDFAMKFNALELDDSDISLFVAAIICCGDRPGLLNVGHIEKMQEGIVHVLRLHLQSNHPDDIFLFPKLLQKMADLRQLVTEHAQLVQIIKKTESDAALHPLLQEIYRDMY
Put plainly: PPAR-α reporter assay (GAL4 luciferase, CV-1 cells). In kind it is cell-based. As to conditions: induction ratio of luciferase activity at 50 μM, activity without tested compound = 1, hGR-GAL4-hPPAR-α. The method, then: The reporter assay of PPAR (peroxisome proliferator-activated receptor)-α was conducted by using the following plasmids in accordance with the known report (Steven A. Kliwer et al., The Journal of Biological Chemistry Vol. 270, No. 22: 12953-12956, 1995).
As luciferase expressing plasmid, used was the plasmid which introduces the sequence wherein 5 yeast GAL4 binding sequences, UAS (upstream activating sequence), are tandemly connected to the upstream of the thymidine kinase promoter of pTAL-Luc (#6252-1, produced by Clontech) (UAS×5-TK-Luc) (1).
As PPAR-α receptor expressing plasmid, used was the plasmid which introduces the N-terminal domain of human GR (1-76aa), the yeast GAL4 DNA binding domain (1-147aa) and PPAR-α ligand binding domain (167-468aa) to NotI site and SalI site of pExchange-1 core vector (#211176, produced by Stratagene) (hGR-GAL4-hPPAR-α) (2). The plasmid mixed solution used in the reporter assay of PPAR-α contains above (1), (2) and plasmid pcDNA3.1(−) as a carrier in the weight ratio of 4:1:3.
The medium having the following composition was used for seeding cell line CV-1 used in the reporter assay, derived from the kidney of an African green monkey, on the plate; and for diluting the tested compounds. Used was Dulbecco modified Eagle medium (D2902 without phenol red, produced by SIGMA) to which 3.7 g/L of NaHCO3, 3.5 g/L of D-glucose and 10% v/v fetal bovine serum were added.
(§1) CV-1 cells were seeded on the 384-well white plate (781080, produced by Greiner) to become 1.5×10^4 cells/30 μL per one well. Then, gene transfer was conducted in accordance with the manual by using OPTI-MEM I (11058-021, produced by GIBCO), FuGENE6 (1-815-075, produced by Roche) and the above PPAR-α plasmid mixed solution. The incubation was conducted in a carbon-dioxide incubator at 37° C. for 6 to 8 hours. Then, a diluted tested compound was added thereto and incubated in a carbon-dioxide incubator at 37° C. for 16 to 18 hours. Britelite (6016979, produced by PerkinElmer) was further added thereto and stirred, and the luciferase activity was measured with EnVision (produced by PerkinElmer).
(§2) Specifying the luciferase activity without addition of a tested compound as 1, the induction ratio of the luciferase activity by each tested compound was calculated.
In general terms: A reporter such as luciferase makes a cellular process visible.

Another assay has as its target T2, PPAR-γ (Homo sapiens, UniProt P37231).
T2 construct: expressed in transfected cells; host or cells: CV-1 (African green monkey kidney)
T2 sequence (P37231 204-505): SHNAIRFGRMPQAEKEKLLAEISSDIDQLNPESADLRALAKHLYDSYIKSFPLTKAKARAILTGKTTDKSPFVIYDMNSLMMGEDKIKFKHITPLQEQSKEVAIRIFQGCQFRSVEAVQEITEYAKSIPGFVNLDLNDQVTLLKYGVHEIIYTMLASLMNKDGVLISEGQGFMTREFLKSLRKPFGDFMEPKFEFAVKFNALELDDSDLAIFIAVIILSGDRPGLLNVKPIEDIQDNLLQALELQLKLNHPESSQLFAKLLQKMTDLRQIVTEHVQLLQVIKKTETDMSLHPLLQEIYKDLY
Put plainly: PPAR-γ reporter assay (GAL4 luciferase, CV-1 cells). In kind it is cell-based. As to conditions: induction ratio of luciferase activity at 25 μM, activity without tested compound = 1, hGR-GAL4-hPPAR-γ. The method, then:
The reporter assay of PPAR-γ was conducted by using the following plasmids in accordance with the known report (Steven A. Kliwer et al., The Journal of Biological Chemistry Vol. 270, No. 22: 12953-12956, 1995).
As luciferase expressing plasmid, used was the plasmid which introduces the sequence wherein 5 yeast GAL4 binding sequences, UAS, are tandemly connected to the upstream of the thymidine kinase promoter of pTAL-Luc (#6252-1, produced by Clontech) (UAS×5-TK-Luc) (1).
As PPAR-γ receptor expressing plasmid, used was the plasmid which introduces the N-terminal domain of human GR (1-76aa), the yeast GAL4 DNA binding domain (1-147aa) and PPAR-γ2 ligand binding domain (204-505aa) to NotI site and SalI site of pExchange-1 core vector (#211176, produced by Stratagene) (hGR-GAL4-hPPAR-γ) (2). The plasmid mixed solution used in the reporter assay of PPAR-γ contains above (1), (2) and plasmid pcDNA3.1(−) as a carrier in the weight ratio of 4:1:3.
as §1, with “PPAR-γ” for “PPAR-α”
as §2

Each structure is given as a SMILES string.

For the compound `CCCCCCCCCCCC(=O)NC(C)C(=O)O` (racemic) [Example 13], the PPAR-α induction ratio at PPAR-α is reported as 25.0. Moreover, the PPAR-γ induction ratio at PPAR-γ is recorded as 15.4.

For `CCCCCCCCCCCC(=O)NC(C)(CC)C(=O)O` (racemic) [Example 16], on PPAR-α, the PPAR-α induction ratio came to 23.0. The PPAR-γ induction ratio on PPAR-γ amounted to 18.5.

For the compound `CCCCCCCCCCCC(=O)NC(C)(C(=O)O)C(C)C` (racemic) [Example 18], the PPAR-α induction ratio on PPAR-α turned out to be 39.0. Further, the PPAR-γ induction ratio at PPAR-γ turned out to be 24.0.

Turning to `CCCCCCCCCCCC(=O)NC(C(N)=O)C(C)C` (racemic) [Example 21], the PPAR-α induction ratio on PPAR-α is reported as 45.0. The PPAR-γ induction ratio at PPAR-γ came out at 19.2.

Take `CCCCCCCCCCCCNC(=O)C(NC(=O)CCCCCCCCCCC)C(C)C` (racemic) [Example 22]: the PPAR-α induction ratio at PPAR-α was determined as 44.0. The PPAR-γ induction ratio on PPAR-γ amounted to 16.6.

Regarding `CCCCCCCCCCCC(=O)N[C@H](C(=O)NC1CCCCC1)C(C)C` (racemic) [Example 23, N-lauroyl-L-valine cyclohexylamide], the PPAR-α induction ratio at PPAR-α is on record as 63.0. Moreover, the PPAR-γ induction ratio on PPAR-γ is 21.3.

On to `CCCCCCCCCCCC(=O)NC(C(=O)O)C(C(F)(F)F)C(F)(F)F` (racemic) [Example 34], for which the PPAR-α induction ratio on PPAR-α was 2.3. Also, the PPAR-γ induction ratio at PPAR-γ was 2.7.

For the compound `CCCCCCCCCCCC(=O)NC(Cc1ccccc1C)C(=O)O` (racemic) [Example 38], the PPAR-α induction ratio at PPAR-α amounted to 2.8. The PPAR-γ induction ratio on PPAR-γ is recorded as 3.2.

In the case of `CCCCCCCCCCCC(=O)NC(C)(Cc1ccccc1)C(=O)O` (racemic) [Example 41], at PPAR-α, the PPAR-α induction ratio is recorded as 7.3. Moreover, the PPAR-γ induction ratio on PPAR-γ is given as 5.1.

Turning to `CCCCCCCC(=O)N[C@H](C(=O)O)C(C)C` [Example 1], the PPAR-α induction ratio on PPAR-α was determined as 1.5. Further, the PPAR-γ induction ratio at PPAR-γ was 11.9.

As for `CCCCCCCCC(=O)N[C@H](C(=O)O)[C@@H](C)CC` [Example 2], on PPAR-α, the PPAR-α induction ratio was 2.1. Also, the PPAR-γ induction ratio at PPAR-γ is given as 12.5.

On to `CCCCCCCCC(=O)N[C@@H](CC(C)C)C(=O)O` [Example 3], for which the PPAR-α induction ratio at PPAR-α came to 0.9. For the same compound, on PPAR-γ, the PPAR-γ induction ratio was 6.1.

Turning to `CCCCCCCCC(=O)N[C@H](C(=O)O)C(C)C` [Example 4], the PPAR-α induction ratio on PPAR-α came out at 3.1. Further, the PPAR-γ induction ratio on PPAR-γ came out at 12.9.

On to `CCCCCCCCCC(=O)N[C@H](C(=O)O)[C@@H](C)CC` [Example 5], for which, at PPAR-α, the PPAR-α induction ratio was 3.5. Further, the PPAR-γ induction ratio at PPAR-γ came to 15.9.

For `CCCCCCCCCC(=O)N[C@@H](CC(C)C)C(=O)O` [Example 6], at PPAR-α, the PPAR-α induction ratio amounted to 1.3. Also, the PPAR-γ induction ratio at PPAR-γ turned out to be 9.5.

Turning to `C=CCCCCCCCCC(=O)N[C@@H](CC(C)C)C(=O)O` [Example 7], the PPAR-α induction ratio on PPAR-α worked out at 2.7. At PPAR-γ, the PPAR-γ induction ratio was 11.5.

For `C=CCCCCCCCCC(=O)N[C@@H](Cc1ccccc1)C(=O)O` [Example 8], the PPAR-α induction ratio on PPAR-α is on record as 1.3. The PPAR-γ induction ratio on PPAR-γ is reported as 4.4.

As to `CCCCCCCCCC(=O)N[C@H](C(=O)O)C(C)C` [Example 9], the PPAR-α induction ratio on PPAR-α worked out at 19.0. In addition, the PPAR-γ induction ratio at PPAR-γ is listed as 25.4.

Take `C=CCCCCCCCCC(=O)N[C@H](C(=O)O)C(C)C` [Example 10]: the PPAR-α induction ratio at PPAR-α was 23.0. Also, the PPAR-γ induction ratio on PPAR-γ was determined as 15.3.

For `CCCCCCCCCCC(=O)N[C@@H](CC(C)C)C(=O)O` [Example 11], the PPAR-α induction ratio at PPAR-α is given as 3.0. The PPAR-γ induction ratio on PPAR-γ came out at 11.6.

On to `CCCCCCCCCCC(=O)N[C@@H](Cc1ccccc1)C(=O)O` [Example 12], for which, at PPAR-α, the PPAR-α induction ratio is 1.4. The PPAR-γ induction ratio at PPAR-γ came to 4.2.

Take `CCCCCCCCCCCC(=O)N[C@H](C(=O)O)[C@@H](C)CC` [Example 14]: the PPAR-α induction ratio at PPAR-α is listed as 51.0. The PPAR-γ induction ratio on PPAR-γ stood at 20.5.

For the compound `CCCCCCCCCCCC(=O)N[C@@H](CC(C)C)C(=O)O` [Example 15], the PPAR-α induction ratio at PPAR-α is on record as 11.0. At PPAR-γ, the PPAR-γ induction ratio stood at 9.7.

`CCCCCCCCCCCC(=O)NC(C)(C)C(=O)O` [Example 17]: the PPAR-α induction ratio at PPAR-α was found to be 32.0. Further, the PPAR-γ induction ratio on PPAR-γ was found to be 20.3.

In the case of `CCCCCCCCCCCC(=O)N[C@@H](CCSC)C(=O)O` [Example 19], the PPAR-α induction ratio on PPAR-α is listed as 24.0. Moreover, the PPAR-γ induction ratio on PPAR-γ was 20.9.

As to `CCCCCCCCCCCC(=O)N[C@H](C(=O)O)C(C)C` [Example 20, N-lauroyl-L-valine], on PPAR-α, the PPAR-α induction ratio is listed as 52.0. Besides, the PPAR-γ induction ratio on PPAR-γ worked out at 19.1.

For the compound `CCCCCCCCCCCC(=O)N(CC)[C@H](C(=O)O)C(C)C` [Example 24], the PPAR-α induction ratio at PPAR-α stood at 46.0. In addition, the PPAR-γ induction ratio at PPAR-γ is recorded as 16.4.

For the compound `CCCCCCCCCCCCCC(=O)N[C@H](C(=O)O)[C@@H](C)CC` [Example 25], the PPAR-α induction ratio at PPAR-α is 50.0. For the same compound, the PPAR-γ induction ratio at PPAR-γ is 27.4.

For `CCCCCCCCCCCCCC(=O)N[C@@H](CC(C)C)C(=O)O` [Example 26], the PPAR-α induction ratio on PPAR-α turned out to be 33.0. Besides, the PPAR-γ induction ratio on PPAR-γ was 21.0.

Turning to `CCCCCCCCCCCCCCCC(=O)N[C@@H](CC(C)C)C(=O)O` [Example 27], the PPAR-α induction ratio on PPAR-α is reported as 2.5. The PPAR-γ induction ratio at PPAR-γ is 11.7.

As for `CCCCCCCCCCCCCCCC(=O)N[C@H](C(=O)O)C(C)C` [Example 28], the PPAR-α induction ratio on PPAR-α is reported as 29.0. The PPAR-γ induction ratio on PPAR-γ turned out to be 17.1.

In the case of `CCCCCCCCCCCCCCCCCC(=O)N[C@@H](CC(C)C)C(=O)O` [Example 29], the PPAR-α induction ratio at PPAR-α is recorded as 1.6. For the same compound, the PPAR-γ induction ratio on PPAR-γ was determined as 12.3.

Turning to `CCCCCCCCCCCCCCCCCC(=O)N[C@H](C(=O)O)C(C)C` [Example 30], the PPAR-α induction ratio on PPAR-α is given as 15.0. Also, the PPAR-γ induction ratio on PPAR-γ came to 13.7.

For `CCCCCCCCCCCCCCCCCCCCCC(=O)N[C@H](C(=O)O)C(C)C` [Example 31], the PPAR-α induction ratio on PPAR-α stood at 1.2. Also, the PPAR-γ induction ratio on PPAR-γ is 4.4.

For `CCCCCCCCCC(=O)N[C@H](C(=O)O)C(C)(C)C` [Example 32], the PPAR-α induction ratio at PPAR-α is given as 31.5. In addition, the PPAR-γ induction ratio at PPAR-γ came out at 15.2.
